According to US12729209B2, “Macrocyclic compounds and methods of treatment” (University of Florida Research Foundation, Incorporated, priority 2020, dated 2026):
Numbered stars: 1 amine (or outer) side, 2 acyl side, 3 side chain; on linkers, the order of the positions; unused ones are H or OH. Square brackets hold non-standard residues; d marks the D form. Peptide text beside a SMILES is read from it. X1 = CN([C@H](C(=O)[*:2])[C@@H](O)C(N)=O)[*:1]; Pro(4S-Me) = C[C@@H]1CN[C@H](C(=O)O)C1; N(OH)Ala = C[C@H](NO)C(=O)O; Lac = C[C@H](O)C(=O)O; Dha = C=C(N)C(=O)O

What was measured:
[1] = from C=CCON(C(=O)[C@H]([C@@H](O[Si](C)(C)C(C)(C)C)C(=O)NC(c1ccccc1)(c1ccccc1)c1ccccc1)N(C)C(=O)C(C)OC(=O)[C@@H]1CC(C)CN1C(=O)OCC1c2ccccc2-c2ccccc21)[C@@H](C)C(=O)N[C@@H](C[Se]c1ccccc1)C(=O)OCC1c2ccccc2-c2ccccc21; amide bond; PyBOP/HOAt/DIEA; CH2Cl2; 0.61 mM; 25.0 °C; 24.0 h; 2 steps
HCT116^HIF-1α−/− cells = assay: MTT cell viability assay, isogenic HCT116 HIF-1α knockout; format: cell-based, human; conditions: 48 h, versus parental HCT116
Description: (§1) Parental HCT116, HCT116^HIF-1α−/−HIF-2α−/−, HCT116^HIF-1α−/−, HCT116^HIF-2α−/−, HCT116^WT KRAS along with normal colon cell line CCD841-CoN were cultured in Dulbecco's modified Eagle medium (DMEM, Life Technologies, USA) supplemented with 10% Fetal Bovine Serum (FBS, Sigma, USA) and maintained in 5% CO2 at 37° C. HCT116 cells (8,000 cells/well) and normal cells (3,000 cells/well) were seeded in 96-well plates, allowed to attach overnight and then treated with different concentrations of GB1 (1a) or solvent control (0.5% DMSO). Cell viability was measured 48 h following treatment with MTT dye using manufacturer's protocol (Promega). IC50 was determined by non-linear regression analysis using GraphPad Prism 8. Data are represented as average±SD (n=3).

[2] = tested on: HCT116 colorectal cancer cells; assay: MTT cell viability assay, parental HCT116; format: cell-based, human; conditions: for IC50: 48 h treatment, read-out: IC50 against HCT116 colorectal cancer cells
Description: as §1

[3] = Qualitative test for Fe(III) chelating ability; format: physicochemical; conditions: FeCl3 solution in ethanol (5% wt), orange spot
From the text: We applied a solution of GB1 (1a) in CH2Cl2 to reverse TLC (C18) (MeOH/H2O 1:1, v/v), then dipped the TLC into FeCl3 solution in ethanol (5% wt).

[4] = tested on: melanoma (SK-MEL-5) cancer cells; assay: NCI-60 screen, SK-MEL-5; format: cell-based; conditions: NCI-60 data
From the text: (§2) FIG. 27 depicts a heatmap for the performance of GB1 across cell lines in the NCI-60 screen using three different values (growth-inhibitory effect, GI50; cytostatic effect, TGI; cytotoxic effect, LC50; concentration in M).

[5] = tested on: ovarian (OVCAR-3) cancer cells; assay: NCI-60 screen, OVCAR-3; format: cell-based; conditions: NCI-60 data
From the text: as §2

VEGFA = assay: HIF target gene (VEGFA) expression by RT-qPCR; format: cell-based, human; conditions: 3.2 μM (4×IC50), 16 h, parental HCT116 cells, β-actin endogenous control
Description: FIG. 26 depicts HIF target gene (VEGFA) expression after 16 h exposure of parental HCT116 cells to GB1 (3.2 μM) or vehicle (0.25% DMSO). RNA was isolated, reverse transcribed and subjected to qPCR using TaqMan analysis. β-actin served as endogenous control. Error bars indicate mean±SD of three replicates (student t test, *p<0.05).
HCT116 cells were seeded in 6-well plates at a density of 4×10^5 per well and incubated overnight for cells to attach. Cells were treated with 3.2 μM GB1 or 0.25% DMSO (vehicle). RNA was isolated 16 h later using the RNeasy mini kit (QIAGEN, Valencia, CA). Total RNA was quantified using NanoDrop 2000. cDNA synthesis was carried out using SuperScript II Reverse Transcriptase (Invitrogen, Carlsbad, CA) and oligo (dT) (Invitrogen) from 2 μg of total RNA. The qPCR after reverse transcription (RT-qPCR) was performed on a 25 μL reaction solution containing a […] aliquot of cDNA, 12.5 μL of TaqMan gene expression master mix, 1.25 μL of probes, and 11 μL RNase-free water. qPCR was carried out on an ABI 7300 sequence detection system using the thermocycler program: 2 min at 50° C., 10 min at 95° C., and 15 s at 95° C. (40 cycles) and 1 min at 60° C. Experiments were performed in triplicate. Probes for target gene: VEGFA (Hs00900055_m1) and for endogenous control: β-actin (Hs99999903_m1). […]

NCI-60 cell lines = conditions: versus paclitaxel, eribulin, colchicine and vinca bis-indole alkaloid derivatives
From the text: Furthermore, cervical and breast cancers are relevant indications, prompting additional studies in these cell types^35.

COLO205 cells = assay: NCI-60 screen (sulforhodamine B assay), COLO205; format: cell-based; conditions: NCI-60 data, read-out: GI50 against COLO205 cells
From the text: as §2

[6] = tested on: CCD841-CoN normal epithelial colon cells; assay: MTT cell viability assay, normal colon cells; format: cell-based; conditions: 48 h treatment
Description: as §1

tubulin = assay: Tubulin polymerization assay (fluorescence based in vitro kit); format: biochemical; conditions: tubulin 2 mg/mL, 37° C., 1 hour
Description: Tubulin polymerization was performed using fluorescence based in vitro polymerization kit (Cytoskeleton, #BK011P) per the manufacturer recommendation. Briefly, the provided tubulin was reconstituted to 10 mg/mL stock, as recommended, and used at final concentration of 2 mg/mL in 80 mM PIPES pH 6.9, 2.0 mM MgCl2, 0.5 mM EGTA, 1.0 mM GTP and 15% glycerol for the assays. The compound was prepared in 3-fold dilutions and kept on ice until the assay was started. Buffer components and tubulin stocks were kept on ice until use. The assay plate was pre-warmed at 37° C. for 10 minutes and the compounds were added to the plate wells at 5 uL (<10% DMSO) for 1 minute to warm. Fifty microliters of tubulin reaction mix (2 mg/mL in 80 mM PIPES pH 6.9, 2.0 mM MgCl2, 0.5 mM EGTA, 1.0 mM GTP and 15% glycerol) was added to each well and mixed gently with the inhibitor to avoid bubble formation. The plate was read on FlexStation3 reader (Molecular Devices) at 360 nm excitation/450 nm emission, every minute for 1 hours at 37° C. Decrease in fluorescent signal indicated inhibition of polymerization.

HeLa cells = assay: Caspase-3/7 activity (Caspase-Glo 3/7) in HeLa cells; format: cell-based; conditions: increasing concentrations, 14 h, 24 h and 36 h
Description: FIG. 29 depicts that GB1 causes apoptosis in HeLa cells with increased caspase activity. HeLa cells were treated with increasing concentrations of GB1 and combretastatin-4 (CA-4) (100 nM) using 0.5% DMSO as solvent control. Caspase-3/7 activity was measured using Caspase-Glo 3/7 reagent kit at 14 h, 24 h and 36 h. Data represents average of three replicates with ±SD. The p-values were calculated using two-tailed Student t-test; *p<0.05, **p<0.01, ***p<0.005.

[7] = tested on: HCT116^HIF-1α−/−HIF-2α−/− cells; assay: MTT cell viability assay, isogenic HCT116 double knockout; format: cell-based, human; conditions: 48 h, versus parental HCT116
Description: as §1

HCT116^HIF-2α−/− cells = assay: MTT cell viability assay, isogenic HCT116 HIF-2α knockout; format: cell-based, human; conditions: 48 h, compared among isogenic lines
Description: as §1

HCT116 cells [8] = assay: HCT116 cell cycle analysis (propidium iodide, flow cytometry); format: cell-based, human; conditions: 320 nM, 1 μM, 3.2 μM, 24 h
Description: FIG. 25 depicts a cell cycle analysis. HCT116 cells were treated with GB1 (320 nM, 1 μM, 3.2 μM) or vehicle control (0.25% DMSO) for 24 h and DNA content assessed by flow cytometry of propidium iodide stained cells.
HCT116 cells were seeded in 6-well plates (400,000 cells/well, DMEM/10% FBS and allowed to attach overnight prior to treatment with GB1. Media was replaced by fresh DMEM/10% FBS after 24 h of incubation and treated with compound and solvent control (0.25% DMSO) for 24 h. The medium in each well was collected separately, and the cells washed with 500 μL PBS and collected into the corresponding tubes. Cells were detached using trypsin (Invitrogen) and collected into the corresponding tubes and centrifuged at 400 g for 10 min at 4° C. The supernatant was discarded and the cell pellets were resuspended in 500 μL ice-cold PBS, centrifuged at 400 g for 10 min at 4° C. and supernatant was discarded. The cell pellets were resuspended in 300 μL ice-cold PBS and 700 μL ice-cold EtOH was added slowly to each cell suspension with gentle pipetting. Cells were incubated at −20° C. overnight and centrifuged at 400 g for 10 min at 4° C. next day. […] Fluorescence from propidium iodide-DNA complexes were quantified using FACScan (BD Biosciences LSRFortessa) and data were analyzed using ModFit LT (Verity Software House).

HCT116 cells [9] = assay: NCI-60 screen (sulforhodamine B assay), HCT116; format: cell-based, human; conditions: NCI-60 data, read-out: GI50 against HCT116 cells
From the text: as §2

[10] = tested on: prostate (DU-145) cancer cells; assay: NCI-60 screen, DU-145; format: cell-based; conditions: NCI-60 data
From the text: as §2

HCT116^WT KRAS cells = assay: MTT cell viability assay, oncogenic KRAS knockout; format: cell-based, human; conditions: 48 h, versus parental HCT116
Description: as §1

| Compound | ring closure, yield of all isomers [1] | potency and efficacy against HCT116^HIF-1α−/− (HCT116^HIF-1α−/− cells) | antiproliferative activity, relative susceptibility of parental HCT116 cells ([2]; 48 h, compared among isogenic lines) | IC50 [2] | Fe(III) chelating ability (FeCl3 on TLC) [3] | susceptibility of SK-MEL-5 melanoma cells [4] | susceptibility of OVCAR-3 ovarian cancer cells [5] | HIF-1α target gene VEGFA expression (VEGFA) | COMPARE correlation (P) of cytotoxicity profile with antimitotic/tubulin agents (NCI-60 cell lines) | GI50 (COLO205 cells) | effect on the viability of CCD-841CoN normal epithelial colon cells [6] | IC50 ([6]; read-out: IC50 against normal mucosal colon cells) | inhibition of tubulin polymerization in vitro (tubulin) | caspase-3/7 activity / apoptosis in HeLa cells (HeLa cells) | potency and efficacy against HCT116^HIF-1α−/−HIF-2α−/− [7] | antiproliferative activity, relative susceptibility of HCT116^HIF-2α−/− (HCT116^HIF-2α−/− cells) | cell cycle effect (DNA content) (HCT116 cells [8]) | GI50 (HCT116 cells [9]) | susceptibility of DU-145 prostate cancer cells [10] | potency and efficacy against oncogenic KRAS knockout (HCT116^WT KRAS) (HCT116^WT KRAS cells) |
| --- | --- | --- | --- | --- | --- | --- | --- | --- | --- | --- | --- | --- | --- | --- | --- | --- | --- | --- | --- | --- |
| C=CCON1C(=O)[C@H]([C@@H](O[Si](C)(C)C(C)(C)C)C(=O)NC(c2ccccc2)(c2ccccc2)c2ccccc2)N(C)C(=O)C(C)OC(=O)[C@@H]2CC(C)CN2C(=O)[C@H](C[Se]c2ccccc2)NC(=O)[C@@H]1C (stereo partly drawn) | 60.3% |  |  |  |  |  |  |  |  |  |  |  |  |  |  |  |  |  |  |  |
| C=C1NC(=O)[C@H](C)N(O)C(=O)[C@H]([C@@H](O)C(N)=O)N(C)C(=O)[C@H](C)OC(=O)[C@@H]2C[C@H](C)CN2C1=O [GB1, Gatorbulin-1] (cyclo([Dha][Pro(4S-Me)][Lac][X1][N(OH)Ala])) |  | reduced | most susceptible | 800 nM | positive reaction | susceptible | susceptible | downregulation | 0.75-0.85 | 92 nM | marginal effect | > 10000 nM | directly inhibits tubulin polymerization | induces apoptosis | reduced | most susceptible | induced G2/M accumulation | 306 nM | susceptible | reduced |
| Gatorbulin-2 [GB2] |  |  |  | > 10000 nM |  |  |  |  |  |  |  |  |  |  |  |  |  |  |  |  |
